For this test, the target named is T1, HCV polymerase (Hepatitis C virus genotype 1b, UniProt P26663).
T1 construct: 2.5 pmoles (0.15 μg) HCV polymerase protein in a final volume of 75 μL
T1 sequence (P26663 2420-3010): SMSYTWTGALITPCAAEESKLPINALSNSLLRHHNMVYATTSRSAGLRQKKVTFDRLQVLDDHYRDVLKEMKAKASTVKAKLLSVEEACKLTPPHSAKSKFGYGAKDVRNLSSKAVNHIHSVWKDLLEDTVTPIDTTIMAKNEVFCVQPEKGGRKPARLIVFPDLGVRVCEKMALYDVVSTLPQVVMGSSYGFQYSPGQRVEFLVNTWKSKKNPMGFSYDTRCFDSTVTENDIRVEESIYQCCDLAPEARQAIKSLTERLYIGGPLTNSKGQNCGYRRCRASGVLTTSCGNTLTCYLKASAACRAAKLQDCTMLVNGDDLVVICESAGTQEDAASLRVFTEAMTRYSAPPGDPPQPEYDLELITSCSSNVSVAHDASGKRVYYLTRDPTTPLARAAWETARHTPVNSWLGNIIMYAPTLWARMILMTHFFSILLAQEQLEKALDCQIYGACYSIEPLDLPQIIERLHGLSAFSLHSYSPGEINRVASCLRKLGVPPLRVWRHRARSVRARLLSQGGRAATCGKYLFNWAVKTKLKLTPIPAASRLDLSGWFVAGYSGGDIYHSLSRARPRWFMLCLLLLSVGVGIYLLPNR
Kind of test: HCV polymerase primer/template-directed transcription assay (32P-GTP incorporation, filter binding). Particulars: recombinant HCV polymerase; 30 minutes at 30° C.; concentration giving 50% inhibition of polymerase-directed transcription; read-out: IC50. The class given is biochemical. The procedure, abridged:
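Recombinant genotype 1b polymerase (30 nM) extended biotin-dG12 primer on poly(rC)300 template with 1 μM GTP plus α-32P-GTP, pH 7.2, 10 mM MgCl2, 30 min at 30° C, 1% DMSO final. Products captured on DE filters and counted. IC50 fitted from triplicate cpm, with a tight-binding correction applied below 200 nM.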
As to `COc1ccc(CCC2(C3CCCC3)CC(O)=C(Cc3nc4ccccc4c(=O)[nH]3)C(=O)O2)cc1Cl` (stereo not shown) [B(55), 2-({6-[2-(3-Chloro-4-methoxyphenyl)ethyl]-6-cyclopentyl-4-hydroxy-2-oxo-5,6-dihydro-2H-pyran-3-yl}methyl)quinazolin-4(3H)-one], the IC50 came out at 150 nM. As for `COc1ccc(CCC2(C3CCCC3)CC(O)=C(Cc3nc4ccsc4c(=O)[nH]3)C(=O)O2)cc1Cl` (stereo not shown) [B(56), 2-({6-[2-(3-Chloro-4-methoxyphenyl)ethyl]-6-cyclopentyl-4-hydroxy-2-oxo-5,6-dihydro-2H-pyran-3-yl}methyl)thieno[3,2-d]pyrimidin-4(3H)-one], the figure is 100 nM; as for `COc1ccc(CCC2(C3CCCC3)CC(O)=C(Cc3nc4cc(OC)c(OC)cc4c(=O)[nH]3)C(=O)O2)cc1Cl` (stereo not shown) [B(57), 2-({6-[2-(3-chloro-4-methoxyphenyl)ethyl]-6-cyclopentyl-4-hydroxy-2-oxo-5,6-dihydro-2H-pyran-3-yl}methyl)-6,7-dimethoxyquinazolin-4(3H)-one], 50 nM; as for `Cc1csc2nc(CC3=C(O)CC(CCc4ccc(OCC5CC5)c(Cl)c4)(C4CCCC4)OC3=O)cc(=O)n12` (stereo not shown) [B(58), 7-[(6-{2-[3-Chloro-4-(cyclopropylmethoxy)phenyl]ethyl}-6-cyclopentyl-4-hydroxy-2-oxo-5,6-dihydro-2H-pyran-3-yl)methyl]-3-methyl-5H-[1,3]thiazolo[3,2-a]pyrimidin-5-one], 6200 nM.

Take `COc1cc(OC)c(CCC2(C3CCCC3)CC(O)=C(Cc3cc(=O)n4c(C)csc4n3)C(=O)O2)cc1Cl` (stereo not shown) [B(59), 7-({6-[2-(5-Chloro-2,4-dimethoxyphenyl)ethyl]-6-cyclopentyl-4-hydroxy-2-oxo-5,6-dihydro-2H-pyran-3-yl}methyl)-3-methyl-5H-[1,3]thiazolo[3,2-a]pyrimidin-5-one]: the IC50 was 6 nM. The figure for `COC(=O)Nc1cc(CC2=C(O)CC(CCc3ccc(OC)cc3)(C3CCCC3)OC2=O)on1` (stereo not shown) [B(60), Methyl 5-({6-cyclopentyl-4-hydroxy-6-[2-(4-methoxyphenyl)ethyl]-2-oxo-5,6-dihydro-2H-pyran-3-yl}methyl)isoxazol-3-ylcarbamate] is 540 nM; for `COc1ccc(CCC2(C3CCCC3)CC(O)=C(Cc3cc(=O)n4c(C)csc4n3)C(=O)O2)cc1` (stereo not shown) [B(61), 7-({6-Cyclopentyl-4-hydroxy-6-[2-(4-methoxyphenyl)ethyl]-2-oxo-5,6-dihydro-2H-pyran-3-yl}methyl)-3-methyl-5H-[1,3]thiazolo[3,2-a]pyrimidin-5-one] it is 120 nM. As for `CCc1noc(CC2=C(O)CC(CCc3cc(Cl)c(OC)cc3OC)(C3CCCC3)OC2=O)n1` (stereo not shown) [B(62), 6-[2-(5-Chloro-2,4-dimethoxyphenyl)ethyl]-6-cyclopentyl-3-[(3-ethyl-1,2,4-oxadiazol-5-yl)methyl]-4-hydroxy-5,6-dihydro-2H-pyran-2-one], the figure is 200 nM; as for `COc1cc(OC)c(CCC2(C3CCCC3)CC(O)=C(Cc3nc4cc(OC)c(OC)cc4c(=O)[nH]3)C(=O)O2)cc1Cl` (stereo not shown) [B(63), 2-({6-[2-(5-Chloro-2,4-dimethoxyphenyl)ethyl]-6-cyclopentyl-4-hydroxy-2-oxo-5,6-dihydro-2H-pyran-3-yl}methyl)-6,7-dimethoxyquinazolin-4(3H)-one], 16 nM; as for `COc1cc(OC)c(CCC2(C3CCCC3)CC(O)=C(Cc3nc4ccsc4c(=O)[nH]3)C(=O)O2)cc1Cl` (stereo not shown) [B(64), 2-({6-[2-(5-Chloro-2,4-dimethoxyphenyl)ethyl]-6-cyclopentyl-4-hydroxy-2-oxo-5,6-dihydro-2H-pyran-3-yl}methyl)thieno[3,2-d]pyrimidin-4(3H)-one], 33 nM. Regarding `COc1cc(OC)c(CCC2(C3CCCC3)CC(O)=C(Cc3nc4ccccc4c(=O)[nH]3)C(=O)O2)cc1Cl` (stereo not shown) [B(65), 2-({6-[2-(5-Chloro-2,4-dimethoxyphenyl)ethyl]-6-cyclopentyl-4-hydroxy-2-oxo-5,6-dihydro-2H-pyran-3-yl}methyl)quinazolin-4(3H)-one], the IC50 amounted to 110 nM. As for `COc1ccc(CCC2(C3CCCC3)CC(O)=C(Cc3cc(=O)[nH]c(-c4ccccn4)n3)C(=O)O2)cc1` (stereo not shown) [B(66), 6-({6-Cyclopentyl-4-hydroxy-6-[2-(4-methoxyphenyl)ethyl]-2-oxo-5,6-dihydro-2H-pyran-3-yl}methyl)-2-pyridin-2-ylpyrimidin-4(3H)-one], the figure is 220 nM; as for `O=C1OC(CCc2ccc(OCc3ccccc3)cc2)(C2CCCC2)CC(O)=C1Cc1cc(=O)[nH]c(C2CC2)n1` (stereo not shown) [B(67), 6-[(6-{2-[4-(Benzyloxy)phenyl]ethyl}-6-cyclopentyl-4-hydroxy-2-oxo-5,6-dihydro-2H-pyran-3-yl)methyl]-2-cyclopropylpyrimidin-4(3H)-one], 3200 nM. The figure for `COc1cc(OC)c(CCC2(C3CCCC3)CC(O)=C(Cc3nc(C)cc(=O)[nH]3)C(=O)O2)cc1Cl` (stereo not shown) [B(68), 2-({6-[2-(5-Chloro-2,4-dimethoxyphenyl)ethyl]-6-cyclopentyl-4-hydroxy-2-oxo-5,6-dihydro-2H-pyran-3-yl}methyl)-6-methylpyrimidin-4(3H)-one] is 100 nM. As for `Cc1nc(CC2=C(O)CC(CCc3ccc(C(F)F)c(F)c3)(C3CCCC3)OC2=O)n(C)n1` (stereo not shown) [B(69), 6-Cyclopentyl-6-{2-[4-(difluoromethyl)-3-fluorophenyl]ethyl}-3-[(1,3-dimethyl-1H-1,2,4-triazol-5-yl)methyl]-4-hydroxy-5,6-dihydro-2H-pyran-2-one], the figure is 800 nM. Turning to `Cc1nc(CC2=C(O)CC(CCc3ccc(OCC4CC4)c(Cl)c3)(C3CCCC3)OC2=O)n(C)n1` (stereo not shown) [B(70), 6-{2-[3-Chloro-4-(cyclopropylmethoxy)phenyl]ethyl}-6-cyclopentyl-3-[(1.3-dimethyl-1H-1,2,4-triazol-5-yl)methyl]-4-hydroxy-5,6-dihydro-2H-pyran-2-one], the IC50 came out at 240 nM. The figure for `COc1cc(OC)c(CCC2(C3CCCC3)CC(O)=C(Cc3nc(C)nn3C)C(=O)O2)cc1Cl` (stereo not shown) [B(71), 6-[2-(5-Chloro-2,4-dimethoxyphenyl)ethyl]-6-cyclopentyl-3-[(1,3-dimethyl-1H-1,2,4-triazol-5-yl)methyl]-4-hydroxy-5,6-dihydro-2H-pyran-2-one] is 80 nM; for `COC(=O)Nc1cc(CC2=C(O)CC(CCc3ccc(C(F)F)c(F)c3)(C3CCCC3)OC2=O)on1` (stereo not shown) [B(72), Methyl 5-[(6-cyclopentyl-6-{2-[4-(difluoromethyl)-3-fluorophenyl]ethyl}-4-hydroxy-2-oxo-5,6-dihydro-2H-pyran-3-yl)methyl]isoxazol-3-ylcarbamate] it is 1400 nM; for `COc1cc(OC)c(CCC2(C3CCCC3)CC(O)=C(Cc3nc(-c4ccccn4)no3)C(=O)O2)cc1Cl` (stereo not shown) [B(73), 6-[2-(5-Chloro-2,4-dimethoxyphenyl)ethyl]-6-cyclopentyl-4-hydroxy-3-[(3-pyridin-2-yl-1,2,4-oxadiazol-5-yl)methyl]-5,6-dihydro-2H-pyran-2-one] it is 62 nM. As for `Cc1nc(CC2=C(O)CC(CCc3ccc(OC(F)F)c(Cl)c3)(C3CCCC3)OC2=O)n(C)n1` (stereo not shown) [B(74), 6-{2-[3-Chloro-4-(difluoromethoxy)phenyl]ethyl}-6-cyclopentyl-3-[(1,3-dimethyl-1H-1,2,4-triazol-5-yl)methyl]-4-hydroxy-5,6-dihydro-2H-pyran-2-one], the figure is 3400 nM; as for `Cc1cc(C)n2nc(CC3=C(O)CC(CCc4ccc(C(C)(C)C#N)c(F)c4)(C4CCCC4)OC3=O)nc2n1` (stereo not shown) [B(75), 2-(4-{2-[2-Cyclopentyl-5-(5,7-dimethyl-[1,2,4]triazolo[1,5-a]pyrimidin-2-ylmethyl)-4-hydroxy-6-oxo-3,6-dihydro-2H-pyran-2-yl]-ethyl}-2-fluoro-phenyl)-2-methyl-propionitrile], 3 nM; as for `Cc1cc(C)n2nc(CC3=C(O)CC(CCc4ccc(C5(C#N)CC5)c(F)c4)(C4CCCC4)OC3=O)nc2n1` (stereo not shown) [B(76), 1-(4-{2-[2-Cyclopentyl-5-(5,7-dimethyl-[1,2,4]triazolo[1,5-a]pyrimidin-2-ylmethyl)-4-hydroxy-6-oxo-3,6-dihydro-2H-pyran-2-yl]-ethyl}-2-fluoro-phenyl)-cyclopropanecarbonitrile], 1 nM. The figure for `COc1ccc(CCC2(C3CCCC3)CC(=O)C(Cc3ccccc3)C(=O)O2)cc1` (stereo not shown) [B(77), 3-benzyl-6-cyclopentyl-6-[2-(4-methoxyphenyl)ethyl]dihydro-2H-pyran-2,4(3H)-dione] is 5500 nM. For `COc1ccc(CCC2(C3CCCC3)CC(=O)C(Cc3ccccc3)C(=O)O2)cc1Cl` (stereo not shown) [B(78), 3-benzyl-6-[2-(3-chloro-4-methoxyphenyl)ethyl]-6-cyclopentyldihydro-2H-pyran-2,4(3H)-dione], the IC50 stood at 1000 nM. The figure for `C=CCC1C(=O)CC(CCc2ccc(OC)c(Cl)c2)(C2CCCC2)OC1=O` (stereo not shown) [B(79), 3-allyl-6-[2-(3-chloro-4-methoxyphenyl)ethyl]-6-cyclopentyldihydro-2H-pyran-2,4(3H)-dione] is 2400 nM; for `COc1ccc(CCC2(C3CCCC3)CC(=O)C(Cc3cccnc3)C(=O)O2)cc1Cl` (stereo not shown) [B(80), 6-[2-(3-chloro-4-methoxyphenyl)ethyl]-6-cyclopentyl-3-(pyridin-3-ylmethyl)dihydro-2H-pyran-2,4(3H)-dione] it is 560 nM; for `COc1ccc(CCC2(C3CCCC3)CC(=O)C(Cc3ccccn3)C(=O)O2)cc1Cl` (stereo not shown) [B(81), 6-[2-(3-chloro-4-methoxyphenyl)ethyl]-6-cyclopentyl-3-(pyridin-2-ylmethyl)dihydro-2H-pyran-2,4(3H)-dione] it is around 240 nM. Turning to `COc1ccc(CCC2(C3CCCC3)CC(=O)C(Cc3ccncc3)C(=O)O2)cc1Cl` (stereo not shown) [B(82), 6-[2-(3-chloro-4-methoxyphenyl)ethyl]-6-cyclopentyl-3-(pyridin-4-ylmethyl)dihydro-2H-pyran-2,4(3H)-dione], the IC50 came to 680 nM.

For orientation: IC50 means the concentration that gives 50% inhibition.

Values taken from US7473790B2 (Pfizer Inc., priority 2003, dated 2009).
